Experimental data taken from article PMC10283047, “Targeting β-catenin and PD-L1 simultaneously by a racemic supramolecular peptide for the potent immunotherapy of hepatocellular carcinoma” (Theranostics, 2023).

Tested on: RAW264.7 macrophagocytes
Description: Besides, we contrastively explored cellular uptakes of BBI, PDP, sBBI and sBBI&PDP into a macrophage cell line RAW264.7 and HCC cell line Hepa1-6. The fluorescence was derived from fluorescein isothiocyanate (FITC), FITC was linked to the amino-terminal of sBBI, and the sBBI with FITC was then combined with PDP to form FITC-sBBI&PDP.
Hepa1-6 cells are seeded in 6-well plates at an appropriate density, approximately 200,000 cells per
well. After cell attachment, 1 mL of drug was labeled with 10 µL of FITC (100:1). Keep away from
light, and co-incubate the drug with the cells for 10 minutes. Digest cells according to normal
procedures. After centrifugation, wash 2-3 times with PBS and resuspend in 150-200 µL PBS for
FACS detection. FITC was incubated with drugs for 30 minutes. Plate with 6 cm confocal laser
dishes, 100,000 cells per well. After cell attachment, FITC-labeled drug was added. Drugs were co-
cultured with cells for 6 h. Cells were washed twice with PBS and cellular uptake observed under a
confocal laser fluorescence microscope.

| Substance | Cellular uptake |
| --- | --- |
| CHEHEKFEQR-(PEG3)-nyskptdrqyhfrr [PDP] | neither BBI nor PDP peptide showed cellular uptakes |
| KFERQKILDSQEQLEHRERSLQT -(Hle)-RDIQRML-(2-Nal)-PC [BBI] | neither BBI nor PDP peptide showed cellular uptakes |
